Measured values: article PMC10466336, “Chemical Probe for Imaging of Polo-like Kinase 4 and Centrioles” (JACS Au, 2023)

Target: T1, GFP-Plk4(K41M) in transfected HeLa cells (Homo sapiens, UniProt O00444, K41M)
T1 construct: expressed in transfected cells; host or cells: HeLa
T1 sequence (O00444 1-970 K41M): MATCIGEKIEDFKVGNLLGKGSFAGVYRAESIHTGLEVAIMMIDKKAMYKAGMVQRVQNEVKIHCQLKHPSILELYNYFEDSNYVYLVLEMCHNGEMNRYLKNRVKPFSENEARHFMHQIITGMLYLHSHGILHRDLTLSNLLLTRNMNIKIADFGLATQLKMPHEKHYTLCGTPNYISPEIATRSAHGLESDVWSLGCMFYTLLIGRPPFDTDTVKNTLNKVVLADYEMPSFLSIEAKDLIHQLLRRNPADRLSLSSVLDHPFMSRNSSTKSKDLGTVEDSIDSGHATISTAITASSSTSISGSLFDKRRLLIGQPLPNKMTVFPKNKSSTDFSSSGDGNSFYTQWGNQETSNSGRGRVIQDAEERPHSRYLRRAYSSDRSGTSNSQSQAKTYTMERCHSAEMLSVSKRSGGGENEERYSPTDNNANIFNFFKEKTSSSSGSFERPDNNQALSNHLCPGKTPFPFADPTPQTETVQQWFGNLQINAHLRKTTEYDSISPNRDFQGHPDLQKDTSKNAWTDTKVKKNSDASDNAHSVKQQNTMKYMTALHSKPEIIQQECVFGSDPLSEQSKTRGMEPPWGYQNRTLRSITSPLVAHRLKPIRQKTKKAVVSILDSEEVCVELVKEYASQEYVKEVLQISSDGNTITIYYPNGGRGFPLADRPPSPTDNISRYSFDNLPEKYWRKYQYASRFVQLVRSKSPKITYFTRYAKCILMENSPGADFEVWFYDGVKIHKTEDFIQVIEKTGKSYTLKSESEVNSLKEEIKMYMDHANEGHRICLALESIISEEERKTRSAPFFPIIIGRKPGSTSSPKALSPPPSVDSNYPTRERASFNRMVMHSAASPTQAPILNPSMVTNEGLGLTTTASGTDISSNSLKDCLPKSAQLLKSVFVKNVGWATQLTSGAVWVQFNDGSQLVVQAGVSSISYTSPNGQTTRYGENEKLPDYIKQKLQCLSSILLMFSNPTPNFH
Assay: Live-cell confocal/STED imaging of overexpressed Plk4
Assay type: cell-based
Settings: Cen-TCO 500 nM 1 h, tetrazine 500 nM, no wash (Figure S6)

Q: For `Cc1nnc(COc2cccc3c2C2(OC3=O)c3ccc(N(C)C)cc3[Si](C)(C)c3cc(N(C)C)ccc32)nn1` [HD653, reference compound], which “unspecific signal among tetrazines after Cen-TCO labeling” value is on record?
A: The value was “lowest unspecific signal”.
